From US11247994B2, “6-dithio-substituted-2′-deoxyguanosine compound, preparation method thereof and use thereof” (ZHEJIANG UNIVERSITY, priority 2018, dated 2022)

Columns and labels:
[1] = system: human non-small cell lung cancer A549; assay: MTT assay, tumor cell growth inhibition, A549; type: cell-based; conditions: 48 hours
From the text: (§1) MTT Assay—Inhibitory Effect of 6-dithio-substituted-2′-deoxyguanosine Derivatives on Tumor Cell Growth
(§2) We measured the tumor cell growth inhibitory activity of candidate compounds by MTT assay. Human tumor cells in logarithmic growth phase were digested with 0.25% pancreatin for a certain time, centrifuged, re-suspended and counted with a blood cell counting plate to prepare a cell suspension, and the cell suspension was adjusted to 1.0×10^4-1×10^5 cells/mL. The cell suspension was inoculated into a 96-well culture plate, 100 μL per well, and cultured in an incubator with saturated humidity, 37° C. and 5% CO2 for 24 hours until the cells completely adhered to the wall. The test compound was diluted to the required concentration with a complete medium, the complete medium of the 96-well culture plate inoculated with human tumor cells was sucked out, a medicament-containing medium was added, 100 μL per well, the final concentration of DMSO was less than 0.1%, and the culture plate was put in an incubator for 48 hours. 10 μl of MTT was added to each well of the 96-well plate, and the culture was continued for 4 h. The culture was stopped and the culture solution in the well was carefully sucked off. 150 μL DMSO was added to each well, and shaken at a low speed for 10 min on a shaking table, so that the crystal was fully dissolved. The absorbance of each well was measured at OD 570 nm of an enzyme-linked immunosorbent assay instrument. At the same time, zeroing wells (the culture medium, MTT, dimethyl sulfoxide) and control wells (cells, a drug dissolution medium with the same concentration, a culture solution, MTT, dimethyl sulfoxide) were set up, and the cell growth inhibitory activity was calculated with the corresponding solvents as the control. 3-6 multiple wells in each group were set up with repetition of several times. Cell viability of control=(Adrug group−Azeroing well)/(Acontrol well−Azeroing well)*100%. Drawing was drawn, the data were fitted into a concentration response curve with a variable slope, and IC50 value was calculated from the curve.

[2] = system: human colon cancer cell line HCT116 subcutaneous transplanted tumor; assay: Tumor-bearing test in nude mice, HCT116 subcutaneous transplanted tumor (tumor volume, TUNEL); type: in vivo; conditions: HCT116 model
From the text: Tumor-Bearing Test in Nude Mice—Inhibitory Effect of 6-Dithio-Substituted-2′-Deoxyguanosine Derivatives on the Growth of Subcutaneous Transplanted Tumor Tissue in Nude Mice
1) Tumor-Bearing Mouse Model of Human Colon Cancer Cell Line HCT116
(§3) We took human colon cancer cell line HCT116 as the research object, and established a subcutaneous transplanted tumor model of human colon cancer in 32 immunodeficient nude mice. The 24th generation HCT116 cells in logarithmic growth phase were digested with pancreatin to prepare a single-cell suspension, and 1×10^7 cells were inoculated subcutaneously in the right armpit of male nude mice about 5 weeks old. After inoculation, cyclophosphamide (100 mg/kg) was injected intraperitoneally for two consecutive days. […] On the 20th day after colon cancer cell HCT116 was implanted subcutaneously, nude mice were divided into 7 groups by a random number table method, including a test drug group, a positive control group and a blank control group. Specifically, group A: the compound A was administrated; Group B: the compound B was administrated; Group C: the compound C was administrated; Group D: the compound D was administrated; Group E: the compound 6-thio-DG was administrated; Group F: the compound PX-12 was administrated; Group G: blank group, without administration of any compound. Except group C with 3 rats and group G with 4 rats, all other 5 groups had 5 rats, they mice were labeled and injected by tail vein once every two days for 24 days, 12 times, with the dose of compound A being 2 mg/kg for the first 8 times and 10 mg/kg for the last 4 times, and the dosages of other drugs being the same molar weights. The tumor volume was calculated by taking the length of the tumor as the longest diameter and the width as the corresponding vertical diameter, and the tumor volume V=(length×width^2) mm^3/2. 48 hours after the last treatment, blood was taken from the eyes, and then the animals were killed. Blood was centrifuged to get the supernatant, and then blood biochemical analysis was performed. Paraffin embedded sections of fixed tissues were stained with HE. The tumor mass in a frozen tissue was sectioned in a frozen state, and then stained by DAPI and TUNEL to judge the apoptosis of the tumor tissue in nude mice.

[3] = system: human colon cancer cells HT29; assay: MTT assay, tumor cell growth inhibition, HT29; type: cell-based; conditions: HT-29, 48 hours
From the text: as §1, §2

[4] = system: human breast cancer cells MCF7; assay: MTT assay, tumor cell growth inhibition, MCF7; type: cell-based; conditions: 48 hours
From the text: as §1, §2

[5] = Blood biochemical analysis and HE staining of tissues in HCT116 tumor-bearing nude mice; type: in vivo; conditions: tail vein once every two days, 12 times, blood 48 hours after the last treatment
Method: as §3

For `CC(C)SSc1nc(N)nc2c1ncn2[C@H]1C[C@H](O)[C@@H](CO)O1` [D, 6-(isopropyldithio)-2′-deoxyguanosine], the IC50 [1] was 31.1 µM, the “Extent of apoptosis in tumor tissue (TUNEL staining, rank order)” value ([2]; frozen tumor sections, DAPI and TUNEL, G group = blank) was “D group>A group≈B group≈E group (6-thio-dG group)>C group>F group (PX-12 group)>G group (KB group)” and the “Inhibitory effect on the growth of subcutaneous transplanted tumor tissue in nude mice (rank order, from slope of tumor volume)” value ([2]; tail vein once every two days for 24 days, compound A 2 mg/kg first 8 times, 10 mg/kg last 4 times, others equimolar, KB = blank) was “D>B≈A≈6-thio-dG>PX-12>C>KB”. For the same compound, the “Ability to inhibit the growth of transplanted tumor tissue compared with positive controls” value ([2]; tail vein once every two days for 24 days, equimolar doses) was “stronger than that of positive control 6-thio-dG and PX-12”, the IC50 [3] was 4.24 µM and the IC50 [4] was 41.3 µM. It also gave an Alanine aminotransferase [5] of 28.2 U/L, an Albumin [5] of 25.0 g/L and an Alkaline phosphatase [5] of 31.5 U/L. For the same compound, the Aspartate aminotransferase [5] was 122.2 U/L, the BUN [5] was 8.80 mmol/L and the Chloride ion [5] was 115.3 mmol/L. The Creatine kinase [5] was 1597 U/L, the Creatinine [5] was -3.0 µmol/L and the Glucose [5] was 3.51 mmol/L. The Potassium ion [5] was 6.43 mmol/L, the Sodium ion [5] was 157.5 mmol/L and the Total bilirubin [5] was -1.00 µmol/L. For the same compound, the Total cholesterol [5] was 3.21 mmol/L, the Total protein [5] was 54.2 g/L and the Triglyceride [5] was 0.70 mmol/L.
